Measurements reported in US9321718B2 (CHROMA THERAPEUTICS LTD., priority 2010, dated 2016).

How the values were obtained:
[1] = biological target: T1, human recombinant his-tagged HSP90α (Homo sapiens, UniProt P07900); assay: HSP90 enzyme assay (HTRF, competition with biotinylated Geldanamycin); type: binding; details: IC50 range; read-out: Enzyme Assay
T1 construct: purchased Prospec Technogene #HSP90
Summary of the method: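 HTRF competition: compounds (5000 to 0.3 nM, 0.5% DMSO) displace 40 nM biotinylated geldanamycin from 40 nM his-tagged HSP90α. Binding was read via Eu-cryptate anti-his/streptavidin-XL FRET after 20 h at room temperature in Hepes pH 7.3 buffer. IC50 was fitted against controls.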

[2] = tested on: TNFα release from LPS stimulated THP-1 (hCE-1 +ve) cells; assay: LPS-stimulation of THP-1 cells (TNF-α release); type: cell-based, human; details: Homo sapiens, THP-1; IC50 range; TNF-α after LPS 1 μg/ml, 6 hours; read-out: THP-1 Assay
Protocol: THP-1 cells are plated in […] at a density of 4×10^4 cells/well in V-bottomed 96 well tissue culture treated plates and incubated at 37° C. in 5% CO2 for 16 hours. 2 Hours after the addition of the inhibitor in 100 μl of tissue culture media, the cells are stimulated with LPS (E. Coli strain 005:B5, Sigma) at a final concentration of 1 μg/ml and incubated at 37° C. in 5% CO2 for 6 hours. TNF-α levels are measured from cell-free supernatants by sandwich ELISA (R&D Systems #QTA00B).

[3] = tested on: TNF-α levels in LPS-stimulated human whole blood; assay: LPS-stimulation of human whole blood (TNF-α levels); type: cell-based; details: Homo sapiens; IC50 range; TNF-α after LPS 100 ng/ml, 6 hours
Protocol: Whole blood is taken by venous puncture using heparinised vacutainers (Becton Dickinson) and diluted in an equal volume of RPMI1640 tissue culture media (Sigma). 100 μl is then plated in V-bottomed 96 well tissue culture treated plates. 2 Hours after the addition of the inhibitor in 100 μl of RPMI1640 media, the blood is stimulated with LPS (E. Coli strain 005:B5, Sigma) at a final concentration of 100 ng/ml and incubated at 37° C. in 5% CO2 for 6 hours. TNF-α levels are measured from cell-free supernatants by sandwich ELISA (R&D Systems #QTA00B).

Row | SMILES | IC50 [1] [nM] | IC50 [2] [nM] | IC50 [3] [nM]
1 | CC(C)c1cc(C(=O)N2CCC(N[C@@H](C)C(=O)OC3CCCC3)CC2)c(O)cc1O [Example 5, cyclopentyl N-(1-{[2,4-dihydroxy-5-(propan-2-yl)phenyl]carbonyl}piperidin-4-yl)-L-alaninate] | < 100 | 100 to 1000 | 100 to 1000
2 | CC(C)c1cc(C(=O)N2CCC(N[C@@H](Cc3ccccc3)C(=O)OC3CCCC3)CC2)c(O)cc1O [Example 9, cyclopentyl N-(1-{[2,4-dihydroxy-5-(propan-2-yl)phenyl]carbonyl}piperidin-4-yl)-L-phenylalaninate] | < 100 | 100 to 1000 | 100 to 1000
3 | CCCC[C@H](NC1CCN(C(=O)c2cc(C(C)C)c(O)cc2O)CC1)C(=O)OC1CCCC1 [Example 10, cyclopentyl N-(1-{[2,4-dihydroxy-5-(propan-2-yl)phenyl]carbonyl}piperidin-4-yl)-L-norleucinate] | < 100 | 100 to 1000 | > 1000
4 | CC(C)c1cc(C(=O)N2CCC(N[C@@H](CC3CCCCC3)C(=O)OC3CCCC3)CC2)c(O)cc1O [Example 13, cyclopentyl 3-cyclohexyl-N-(1-{[2,4-dihydroxy-5-(propan-2-yl)phenyl]carbonyl}piperidin-4-yl)-L-alaninate] | < 100 | 100 to 1000 | < 100
5 | CC(C)C[C@H](NC1CCN(C(=O)c2cc(C(C)C)c(O)cc2O)C1)C(=O)OC1CCCC1 (stereo partly drawn) [Example 20, cyclopentyl N-(1-{[2,4-dihydroxy-5-(propan-2-yl)phenyl]carbonyl}pyrrolidin-3-yl)-L-leucinate] | < 100 | > 1000 | > 1000
6 | CC(C)C[C@H](NCC1CCN(C(=O)c2cc(C(C)C)c(O)cc2O)CC1)C(=O)OC1CCCC1 [Example 21, cyclopentyl N-[(1-{[2,4-dihydroxy-5-(propan-2-yl)phenyl]carbonyl}piperidin-4-yl)methyl]-L-leucinate] | < 100 | < 100 | 100 to 1000
7 | CC(C)c1cc(C(=O)N2CCC(CN[C@@H](C)C(=O)OC3CCCC3)CC2)c(O)cc1O [Example 22, cyclopentyl N-[(1-{[2,4-dihydroxy-5-(propan-2-yl)phenyl]carbonyl}piperidin-4-yl)methyl]-L-alaninate] | < 100 | < 100 | < 100
8 | CC(C)c1cc(C(=O)N2CCC(CN[C@@H](Cc3ccccc3)C(=O)OC3CCCC3)CC2)c(O)cc1O [Example 23, cyclopentyl N-[(1-{[2,4-dihydroxy-5-(propan-2-yl)phenyl]carbonyl}piperidin-4-yl)methyl]-L-phenylalaninate] | < 100 | 100 to 1000 | 100 to 1000
9 | CC(C)C[C@@H](NCC1CCN(C(=O)c2cc(C(C)C)c(O)cc2O)CC1)C(=O)OC1CCCC1 [Example 28, cyclopentyl N-[(1-{[2,4-dihydroxy-5-(propan-2-yl)phenyl]carbonyl}piperidin-4-yl)methyl]-D-leucinate] | < 100 | 100 to 1000 | 100 to 1000
10 | CC(C)c1cc(C(=O)N2CCC(CNC(C)(C)C(=O)OC3CCCC3)CC2)c(O)cc1O [Example 32, cyclopentyl N-[(1-{[2,4-dihydroxy-5-(propan-2-yl)phenyl]carbonyl}piperidin-4-yl)methyl]-2-methyl-L-alaninate] | < 100 | 100 to 1000 | 100 to 1000
11 | CC(C)c1cc(C(=O)N2CCC(CN[C@@H](COC(C)(C)C)C(=O)OC3CCCC3)CC2)c(O)cc1O [Example 34, cyclopentyl O-tert-butyl-N-[(1-{[2,4-dihydroxy-5-(propan-2-yl)phenyl]carbonyl}piperidin-4-yl)methyl]-L-serinate] | < 100 | 100 to 1000 | 100 to 1000
12 | CC(C)c1cc(C(=O)N2CCC(CN[C@H](C(=O)OC3CCCC3)c3ccccc3)CC2)c(O)cc1O [Example 36, cyclopentyl (2S)-{[(1-{[2,4-dihydroxy-5-(propan-2-yl)phenyl]carbonyl}piperidin-4-yl)methyl]amino}(phenyl)ethanoate] | < 100 | 100 to 1000 | 100 to 1000
13 | CC(C)C[C@H](NCCC1CCN(C(=O)c2cc(C(C)C)c(O)cc2O)CC1)C(=O)OC1CCCC1 [Example 38, cyclopentyl N-[2-(1-{[2,4-dihydroxy-5-(propan-2-yl)phenyl]carbonyl}piperidin-4-yl)ethyl]-L-leucinate] | < 100 | 100 to 1000 | 100 to 1000
14 | CC(C)c1cc(C(=O)N2CCC(CCN[C@@H](Cc3ccccc3)C(=O)OC3CCCC3)CC2)c(O)cc1O [Example 40, cyclopentyl N-[2-(1-{[2,4-dihydroxy-5-(propan-2-yl)phenyl]carbonyl}piperidin-4-yl)ethyl]-L-phenylalaninate] | > 1000 | 100 to 1000 | > 1000
15 | CC(C)c1cc(C(=O)N2CCC(CCNC(C)(C)C(=O)OC3CCCC3)CC2)c(O)cc1O [Example 44, cyclopentyl N-[2-(1-{[2,4-dihydroxy-5-(propan-2-yl)phenyl]carbonyl}piperidin-4-yl)ethyl]-2-methylalaninate] | < 100 | < 100 | 100 to 1000
16 | CC(C)c1cc(C(=O)N2CCC(CCN[C@@H](COC(C)(C)C)C(=O)OC3CCCC3)CC2)c(O)cc1O [Example 45, cyclopentyl O-tert-butyl-N-[2-(1-{[2,4-dihydroxy-5-(propan-2-yl)phenyl]carbonyl}piperidin-4-yl)ethyl]-L-serinate] | < 100 | 100 to 1000 | 100 to 1000
17 | CC(C)C[C@H](NCc1ccc2c(c1)CN(C(=O)c1cc(C(C)C)c(O)cc1O)C2)C(=O)OC1CCCC1 [Example 54, cyclopentyl N-[(2-{[2,4-dihydroxy-5-(propan-2-yl)phenyl]carbonyl}-2,3-dihydro-1H-isoindol-5-yl)methyl]-L-leucinate] | < 100 | 100 to 1000 | 100 to 1000
18 | CC(C)c1cc(C(=O)N2Cc3ccc(CNC(C)(C)C(=O)OC4CCCC4)cc3C2)c(O)cc1O [Example 55, cyclopentyl N-[(2-{[2,4-dihydroxy-5-(propan-2-yl)phenyl]carbonyl}-2,3-dihydro-1H-isoindol-5-yl)methyl]-2-methylalaninate] | < 100 | 100 to 1000 | 100 to 1000
19 | CC(C)c1cc(C(=O)N2Cc3ccc(CN[C@@H](C)C(=O)OC(C)(C)C)cc3C2)c(O)cc1O [Example 56, tert-butyl N-[(2-{[2,4-dihydroxy-5-(propan-2-yl)phenyl]carbonyl}-2,3-dihydro-1H-isoindol-5-yl)methyl]-L-alaninate] | 100 to 1000 | > 1000 | > 1000
20 | CC(C)c1cc(C(=O)N2Cc3ccc(CN[C@@H](C)C(=O)OC4CCCC4)cc3C2)c(O)cc1O [Example 59, cyclopentyl N-[(2-{[2,4-dihydroxy-5-(propan-2-yl)phenyl]carbonyl}-2,3-dihydro-1H-isoindol-5-yl)methyl]-L-alaninate] | < 100 | < 100 | 100 to 1000
21 | CC(C)c1cc(C(=O)N2Cc3ccc(CNC4(C(=O)OC5CCCC5)CCCC4)cc3C2)c(O)cc1O [Example 60, cyclopentyl 1-{[(2-{[2,4-dihydroxy-5-(propan-2-yl)phenyl]carbonyl}-2,3-dihydro-1H-isoindol-5-yl)methyl]amino}cyclopentanecarboxylate] | < 100 | < 100 | 100 to 1000
